The source of these data is patent publication EP0384594A1, “Anti-inflammatory aryl derivatives” (THE WELLCOME FOUNDATION LIMITED, priority 1989, dated 1990).

Data set [1] addresses T1, 5-lipoxygenase (Rattus norvegicus, UniProt P12527).
T1 construct: endogenous in cells; host or cells: whole blood of dosed rats (blood leukocytes)
T1 sequence (P12527 1-673): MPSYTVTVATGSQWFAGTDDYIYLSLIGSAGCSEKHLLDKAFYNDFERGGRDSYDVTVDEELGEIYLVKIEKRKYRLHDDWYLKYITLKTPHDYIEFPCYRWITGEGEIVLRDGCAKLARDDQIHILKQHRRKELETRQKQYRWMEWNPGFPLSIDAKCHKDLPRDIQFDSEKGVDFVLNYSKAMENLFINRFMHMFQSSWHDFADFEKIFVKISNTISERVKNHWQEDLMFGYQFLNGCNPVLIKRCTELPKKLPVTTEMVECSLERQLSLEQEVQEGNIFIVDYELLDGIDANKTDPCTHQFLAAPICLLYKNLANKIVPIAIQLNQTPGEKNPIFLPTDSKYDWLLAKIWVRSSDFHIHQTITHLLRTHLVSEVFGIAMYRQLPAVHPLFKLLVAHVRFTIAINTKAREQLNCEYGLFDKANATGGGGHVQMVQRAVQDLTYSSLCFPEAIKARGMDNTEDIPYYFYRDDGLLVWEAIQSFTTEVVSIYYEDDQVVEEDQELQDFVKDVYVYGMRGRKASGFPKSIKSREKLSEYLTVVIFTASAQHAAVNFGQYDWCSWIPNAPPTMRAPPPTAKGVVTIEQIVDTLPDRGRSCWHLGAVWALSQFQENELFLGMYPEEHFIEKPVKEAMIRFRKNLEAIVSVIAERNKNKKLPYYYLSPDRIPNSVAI
Briefly: Ex vivo inhibition of 5-lipoxygenase (stimulated LTB4 synthesis in blood after dosing), rats. The settings on record: po, administered orally to rats, ex vivo A23187-stimulated blood, read-out: inhibited LTB₄ synthesis. How it is done:
After administration of the test compound, the concentration of LTB₄ in the plasma was measured periodically and expressed as a percentage of the mean control value. The procedure used is described in Br. J. Pharmacol. 94, 528 (1988) and may be summarised as follows.
Within 2 minutes of collection, duplicate samples (0.5ml) of blood were stimulated with the calcium ionophore A23187 (final concentration 15µg/ml) for 30 minutes at 37 °C. When incubation was complete, the samples were centrifuged (12,000G for 2 minutes) and the cell-free plasma removed. The plasma concentration of LTB₄ was then determined by specific radioimmunoassay.
The compounds of Synthetic Examples 1 to 3 all inhibited the stimulated ex vivo synthesis of LTB₄ for several hours after their administration. The compound of Synthetic Example 1, for example, when administered orally to rabbits at a dose of 2mg/kg inhibited LTB₄ synthesis by more than 50% for a period of greater than 16 hours. The same compound when administered orally to rats at a dose of 10mg/kg inhibited LTB₄ synthesis by more than 50% for longer than 10 hours.

Data set [2] deals with 5-lipoxygenase. Briefly: Ex vivo inhibition of 5-lipoxygenase (stimulated LTB4 synthesis in blood after dosing), rabbits. The settings on record: for inhibition of the stimulated ex vivo synthesis of leukotriene B₄ (LTB₄), result in words: rabbits, preliminary studies. How it is done:
After administration of the test compound, the concentration of LTB₄ in the plasma was measured periodically and expressed as a percentage of the mean control value. The procedure used is described in Br. J. Pharmacol. 94, 528 (1988) and may be summarised as follows. Within 2 minutes of collection, duplicate samples (0.5ml) of blood were stimulated with the calcium ionophore A23187 (final concentration 15µg/ml) for 30 minutes at 37 °C. When incubation was complete, the samples were centrifuged (12,000G for 2 minutes) and the cell-free plasma removed. The plasma concentration of LTB₄ was then determined by specific radioimmunoassay. The compounds of Synthetic Examples 1 to 3 all inhibited the stimulated ex vivo synthesis of LTB₄ for several hours after their administration. The compound of Synthetic Example 1, for example, when administered orally to rabbits at a dose of 2mg/kg inhibited LTB₄ synthesis by more than 50% for a period of greater than 16 hours. The same compound when administered orally to rats at a dose of 10mg/kg inhibited LTB₄ synthesis by more than 50% for longer than 10 hours.

For data set [3], the target named is T2, 5-lipoxygenase (Homo sapiens, UniProt P09917).
T2 construct: The experiment was repeated using ionophore-stimulated whole human blood; endogenous in cells; host or cells: whole human blood (blood leukocytes)
T2 sequence (P09917 1-674): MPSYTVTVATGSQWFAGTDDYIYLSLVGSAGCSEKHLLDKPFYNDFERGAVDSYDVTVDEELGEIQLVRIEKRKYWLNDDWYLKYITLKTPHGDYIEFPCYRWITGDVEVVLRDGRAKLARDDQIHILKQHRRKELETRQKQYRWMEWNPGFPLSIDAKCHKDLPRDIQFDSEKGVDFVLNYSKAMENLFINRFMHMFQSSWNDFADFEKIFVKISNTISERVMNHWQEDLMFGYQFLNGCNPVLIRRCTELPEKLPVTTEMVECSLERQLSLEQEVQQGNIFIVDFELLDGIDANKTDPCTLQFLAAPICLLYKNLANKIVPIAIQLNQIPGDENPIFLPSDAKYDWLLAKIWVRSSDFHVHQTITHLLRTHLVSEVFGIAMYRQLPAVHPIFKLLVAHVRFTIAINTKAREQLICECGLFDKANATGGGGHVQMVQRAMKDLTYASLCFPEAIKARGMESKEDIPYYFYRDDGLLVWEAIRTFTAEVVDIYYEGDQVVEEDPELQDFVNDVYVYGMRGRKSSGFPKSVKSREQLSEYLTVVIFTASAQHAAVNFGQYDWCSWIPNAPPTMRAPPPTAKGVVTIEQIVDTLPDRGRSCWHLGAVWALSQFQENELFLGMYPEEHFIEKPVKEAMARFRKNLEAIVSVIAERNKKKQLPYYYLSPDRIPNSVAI
The experiment in a line: In vitro inhibition of 5-lipoxygenase, ionophore-stimulated whole human blood. In kind it is cell-based. The settings on record: read-out: IC₅₀ Whole blood. How it is done:
Blood from normal aspirin-free volunteers was centrifuged to separate leukocytes from red cells and platelets. A solution of the test compound in DMSO (10µl, final concentration in the range 0.01 - 100µM) was added to cell homogenate (470µl) and the mixture incubated at 37 °C for 5 minutes. Solutions of arachidonic acid in methanol (250µM, 10µl, final concentration 5µM) and calcium chloride in water (100mM, 10µl, final concentration 2mM) were then added simultaneously and the mixture incubated at 37 °C for a further 5 minutes. The reaction was stopped by boiling. Radioimmunoassay was conducted for leukotriene B₄.
The experiment was repeated using ionophore-stimulated whole human blood.

Data set [4] relates to Male New Zealand White rabbits. The experiment in a line: Combination effects with an NSAID: antigen (ovalbumin)-induced arthritis of the knee joint in rabbits. In kind it is in vivo. Conditions: for proteoglycan loss from the cartilage, result in words / PROTEOGLYCAN LOSS: 14 days after antigen challenge; for mean leukocyte infiltrate in the synovial fluid, result in words / LEUKOCYTES (CELL NUMBER x 10⁶): 14 days after challenge; for PROTEOGLYCAN LOSS: articular cartilage of arthritic joint versus contralateral joint; for JOINT SWELLING: oral x3/24h: compound A 2mg/kg, indomethacin 1mg/kg; for reduced swelling compared to the vehicle-treated controls: from day 3 onwards, maximum reduction; for Lymphocytes / Total cells: histological evaluation of synovial lining; for LEUKOCYTES (CELL NUMBER x 10⁶): synovial fluid of arthritic joint. The protocol:
Male New Zealand White rabbits (2.5 - 3kg) were immunised with intradermal injections of 4mg of ovalbumin in 1ml of Freund's complete adjuvant. Animals were reimmunised 14 days later in the same way. Five days after the second immunisation, arthritis was induced in the right knee joint by injecting 1ml of a sterile solution of ovalbumin (5mg/ml) into the joint cavity. Joint diameters were measured (on a randomised blind basis) with calipers at frequent intervals after antigen challenge. Animals were killed after 14 days and the joint space was washed with 1ml of saline and the resultant fluid was taken for total and differential leukocyte counts. Sensitised animals were randomly allocated to groups of 5-8. The compound of Synthetic Example 1, (E)-N-{1-Methyl-3-[3-(4-fluorophenoxy)phenyl]prop-2-en-1-yl}-N-hydroxyurea (compound A), was administered in suspension following 18h ball-milling in 0.25% Celacol as vehicle. The non-steroidal anti-inflammatory indomethacin was dissolved in a small volume of 1M Tris buffer pH8 and then made up to volume with 0.25% Celacol. Control animals received 0.25% Celacol. Each animal received an oral dose (approximately 5ml) of vehicle or drug 3 times every 24h. Doses were administered at 8.0am, 4.0pm and 12 midnight for 16-17 days commencing 1h before antigen challenge on day 0. All doses were given orally by stomach tube. The groups were as follows: 1-7: Controls (5ml 0.25% Celacol x3/24h) 8-14: 1mg/kg indomethacin dissolved in 0.25% Celacol x3/24h 15-21: 2mg/kg compound A suspended in 0.25% Celacol x3/24h 22-28: 2mg/kg compound A suspended in 0.25% Celacol plus 1mg/kg indomethacin dissolved in 0.25% Celacol Synovial lining tissue was removed from the joint, fixed, processed, cut and stained for microscopic examination. Histological scores were derived for the total mass of inflamed synovial lining, lymphocyte infiltration and polymorph content. The slides were read on a randomised blind basis. Articular cartilage was dissected from the ends of the femurs and digested with papain prior to measurement of the concentration of sulphated glycosaminoglycans (GAGs). The proteoglycan content was expressed as µg GAG/mg wet weight of cartilage and compared with values obtained with cartilage from the contralateral control joint.

A further data set has as its system mice. In kind it is in vivo. The protocol:
The compound of Synthetic Example 1 was administered to mice per orally at doses of up to 300mg/kg and intraperitoneally at doses of up to 100mg/kg.

Data set [5] can be described thus: Anti-oxidant activity: peroxyl radical scavenging, inhibition of peroxidation of linoleic acid. How it is done:
As a measure of anti-oxidant activity, the peroxyl radical scavenging abilities of the compounds of the invention were determined by testing each compound's ability to inhibit the peroxidation of linoleic acid using the method described in Biochem. Pharm. 38, 1465 (1989).

Setting [6] is: duration of arthritis 14 (days).

Molecules are shown by their SMILES. Where two headings read alike, the source gives them in different places.

On to `CC(/C=C/c1cccc(Oc2ccc(F)cc2)c1)N(O)C(N)=O` (racemic) [Synthetic Example 1, (E)-N-{3-[3-(4-fluorophenoxy)phenyl]-1(R,S)-methylprop-2-en-1-yl}-N-hydroxyurea], for which, on 5-lipoxygenase [1], the inhibition at 10 mg/kg is > 50%. Moreover, the “period for which LTB₄ synthesis was inhibited by more than 50%” value in the data set on 5-lipoxygenase [2] (administered orally to rabbits, 2mg/kg) is recorded as “greater than 16 hours”. Besides, in the data set on 5-lipoxygenase [2] (administered orally to rabbits, 2mg/kg, ex vivo A23187-stimulated blood), the “inhibited LTB₄ synthesis” value is “more than 50%”. Also, the “inhibition of the stimulated ex vivo synthesis of leukotriene B₄ (LTB₄), result in words” value in the data set on 5-lipoxygenase [2] is “effectively inhibited”. The IC50 at 5-lipoxygenase [3] turned out to be 150 nM. In addition, in data set [4], the “proteoglycan loss from the cartilage, result in words” value was “reduced proteoglycan loss”; the “mean leukocyte infiltrate in the synovial fluid, result in words” value was “slightly reduced”; the “PROTEOGLYCAN LOSS” value is 34%; the “reduced swelling compared to the vehicle-treated controls” value is recorded as “up to 26%”. Further, in data set [4], the Lymphocytes is 59, the Total cells amounted to 367 and the “LEUKOCYTES (CELL NUMBER x 10⁶)” value was determined as 6.1 x 10⁶. The “JOINT SWELLING” value in data set [4] (duration of arthritis 1 (day)) was 4.6 MM. In addition, the “JOINT SWELLING” value in data set [4] (duration of arthritis 2 (days)) was 5.2 MM. Moreover, the “JOINT SWELLING” value in data set [4] (duration of arthritis 3 (days)) came to 4.6 MM. In addition, in data set [4] (duration of arthritis 8 (days)), the “JOINT SWELLING” value is on record as 3.5 MM. In addition, in data set [4] (setting [6]), the “JOINT SWELLING” value was found to be 3.2 MM. In the data set on mice (intraperitoneally, doses of up to 100mg/kg), the “deaths or serious deleterious effects” value was “No deaths or serious deleterious effects”. In the data set on mice (per orally, doses of up to 300mg/kg), the “deaths or serious deleterious effects” value is “No deaths or serious deleterious effects”. Moreover, the “apparent rate constant (kAH) for scavenging peroxyl radicals” value in data set [5] is given as 0.408.
As for `COc1ccc2c(c1)c(CC(=O)O)c(C)n2C(=O)c1ccc(Cl)cc1` [Indomethacin, indomethacin, reference compound], in data set [4], the “proteoglycan loss from the cartilage, result in words” value was “reduced proteoglycan loss”; the “mean leukocyte infiltrate in the synovial fluid, result in words” value is “slightly reduced”; the “PROTEOGLYCAN LOSS” value is reported as 38%; the “reduced swelling compared to the vehicle-treated controls” value is given as “up to 53%”. Besides, in data set [4], the Lymphocytes is 51, the Total cells came out at 365 and the “LEUKOCYTES (CELL NUMBER x 10⁶)” value is on record as 7.3 x 10⁶. Also, the “JOINT SWELLING” value in data set [4] (duration of arthritis 1 (day)) came to 4.3 MM. The “JOINT SWELLING” value in data set [4] (duration of arthritis 2 (days)) turned out to be 4.5 MM. In addition, in data set [4] (duration of arthritis 3 (days)), the “JOINT SWELLING” value is on record as 3.5 MM. The “JOINT SWELLING” value in data set [4] (duration of arthritis 8 (days)) is given as 2.6 MM. Further, in data set [4] (setting [6]), the “JOINT SWELLING” value was 2.0 MM.
On to `C[C@H](/C=C/c1cccc(Oc2ccc(F)cc2)c1)N(O)C(N)=O` [Synthetic Example 2, (E)-N-{3-[3-(4-fluorophenoxy)phenyl]-1(R)-methylprop-2-en-1-yl}-N-hydroxyurea], for which the “inhibition of the stimulated ex vivo synthesis of leukotriene B₄ (LTB₄), result in words” value in the data set on 5-lipoxygenase [2] is on record as “effectively inhibited”. The IC50 at 5-lipoxygenase [3] was 80 nM.
The corresponding values for `C[C@@H](/C=C/c1cccc(Oc2ccc(F)cc2)c1)N(O)C(N)=O` [Synthetic Example 3, (E)-N-{3-[3-(4-fluorophenoxy)phenyl]-1(S)-methylprop-2-en-1-yl}-N-hydroxyurea] are “effectively inhibited” and 80 nM.
